In patent publication US7579488B2 (Eli Lilly and Company, priority 2003, dated 2009):
pEC50, pIC50: −log10 of the molar value. Values joined by “and” are separate entries in the source; they are usually repeats but may differ in a detail not shown here. Equal values may be shown once. Read-outs that look alike come from different tables or passages of the source.

What was measured:
female DBF mice [1] = details: in vivo, po
Description: The Mouse Hypercalcemia Assay
(§1) The Mouse Hypercalcemia Assay is a six day hypercalcemia test for toxicity and selectivity.
(§2) (4) Materials and Method for the Mouse Hypercalcemia Assay:
(§3) Weanling, virus-antibody-free, five to six weeks old female DBF mice (Harlan, Indianapolis, Ind.) are used for all the studies. Animals are allowed to acclimate to local vivarium conditions for 2 days. […] The animals then are divided into groups with 4-5 mice per group. Different doses of test compounds prepared in 10% Ethanol and 90% sesame oil are administered to mice orally via gavage for 6 days. 1α-25(OH)2D3 0.5 μg/kg/d was also given to one group of mice as the positive control. […] Raw data of group differences is assessed by analysis of variance (ANOVA) using Fisher's protected least significant difference (PLSD) where the significance level was P<0.05.

rat osteocalcin promoter = experiment: OCN (osteocalcin) promoter assay; assay type: cell-based; details: Rattus norvegicus, 48 h, RG-15 (ROS 17/2.8) cells, 48 hr treatment, luciferase; several values separated by /
In short: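 Rat osteoblast-like RG-15 (ROS 17/2.8) cells stably carrying a luciferase reporter driven by the osteocalcin promoter, treated with compounds in DMSO (0.01% v/v final) in medium with 2% FBS. After 48 hr at 37 °C, cells were lysed and luciferase activity measured.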

female DBF mice [2] = experiment: Mouse hypercalcemia assay; details: oral gavage for 6 days; serum ionized calcium 6 hours after last dosing
Description: The Mouse Hypercalcemia Assay
as §1, §2, §3

RXR-VDR heterodimer = target: T1, RXR-VDR heterodimer (Homo sapiens, UniProt P11473); experiment: RXR-VDR heterodimerization assay (SaOS-2 cells); assay type: cell-based; details: Gal4-RXR-DEF/VP16-VDR-LBD luciferase reporter, several values in a cell separated by /
T1 construct: Add the Gal4-RXR-DEF and VP16-VDR-LBD; expressed in transfected cells; host or cells: SaOS-2 cells
T1 sequence (P11473 127-423 limits assumed): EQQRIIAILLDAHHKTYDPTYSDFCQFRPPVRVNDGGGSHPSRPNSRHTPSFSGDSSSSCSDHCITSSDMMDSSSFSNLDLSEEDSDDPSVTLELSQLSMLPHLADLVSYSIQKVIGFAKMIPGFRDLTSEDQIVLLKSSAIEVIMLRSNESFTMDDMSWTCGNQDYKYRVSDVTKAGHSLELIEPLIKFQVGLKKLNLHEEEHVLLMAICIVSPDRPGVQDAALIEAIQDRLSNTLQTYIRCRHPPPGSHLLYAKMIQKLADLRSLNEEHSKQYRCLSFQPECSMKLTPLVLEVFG
T1 sequence (P19793 201-462 partner limits assumed): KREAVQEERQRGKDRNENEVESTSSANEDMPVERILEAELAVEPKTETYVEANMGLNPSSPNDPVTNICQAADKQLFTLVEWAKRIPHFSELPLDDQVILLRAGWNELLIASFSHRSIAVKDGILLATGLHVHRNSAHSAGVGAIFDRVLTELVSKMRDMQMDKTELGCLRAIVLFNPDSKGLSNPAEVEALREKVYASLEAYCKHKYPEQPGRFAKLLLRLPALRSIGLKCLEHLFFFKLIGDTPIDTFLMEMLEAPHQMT

KERtr cells = experiment: Keratinocyte proliferation assay; assay type: cell-based; details: Homo sapiens, 72 h, BrdU incorporation, several values separated by /, read-out: Kera. Prolif. IC50
VDR = target: T2, VDR (Homo sapiens, UniProt P11473); experiment: VDR CTF (Caco-2 cell co-transfection) assay; assay type: cell-based; details: Caco-2 cells, pGal4-VDR-LBD co-transfection, luciferase; several values separated by /
T2 construct: the receptor expression vector pGal4-VDR-LBD (10 ng); expressed in transfected cells; host or cells: Caco-2 cells
T2 sequence (P11473 127-423 limits assumed): T1 sequence (P11473 127-423 limits assumed)
Description: 2. The Caco-2 Cell Co-Transfection Assay:
The Caco-2 cell assay is an indicator for the undesirable condition of hypercalcemia. This co-transfection assay is a surrogate assay for in vivo calcemic activity of VDR ligands. […] Preferred assay results are greater than 1000 nM.
(2) Materials and Method for the Caco-2 Cell Assay:
Caco-2 cells, grown in phenol red free, DMEM (Invitrogen, Carlsbad, Calif.) containing 10% charcoal-stripped FCS (Hyclone, Logan, Utah), were transfected with Fugene 6 reagent (Roche Diagnostics, Indianapolis, Ind.). Cells (5000/well) were plated 18 h before transfection in a 96 well plate. The Cells were transfected with Gal4-responsive reporter pFRLuc (150 ng, Stratagene, La Jolla Calif.) and the receptor expression vector pGal4-VDR-LBD (10 ng), along with Fugene 6 reagent (0.2 μl/well). The DNA-Fugene complex was formed by incubating the mixture for 30 min at room temperature. The cells were transfected in triplicate for 5 h, and treated with various concentrations of VDR ligands (form 0.01 nM to 10,000 nM concentration range) 18 h post-transfection. The luciferase activity was quantified using Steady-Glo reagent kit (Promega, Madison, Wis.) as per manufacturer's specifications.

IL-10 = IL-10 induction assay; assay type: cell-based; details: Homo sapiens, PBMC, TPA/PHA stimulated human PBMCs, IL-10 in supernatant by immunoassay; several values separated by /
Text: 6. The IL-10 Induction Assay
This is an in vitro efficacy assay for psoriasis, abscess and adhesion. Psoriasis involves both keratinocytes and immune cells. IL-10 is a unique cytokine because it is anti-inflammatory and immunosuppressive. This assay tells us whether a VDRM is able to function as an agonist in PBMCs ([…]) or not.
(6) Materials and Method for Human IL-10 Induction Assay:
Isolation of Peripheral Blood Mononuclear Cells (PBMCs):
B. Prepare sterile tubes with ficol.
C. Add diluted blood to tubes.
E. Discard the top layer and collect the cells from middle layer.
F. Divide all cells into four tubes and add media.
H. Aspirate off media and resuspend.
J. Centrifuge. at 1200 rpm for 10 minutes.
M. Dissolve PHA in water.
N. Plate TPA/PHA treated PBMCs in well plates.
Sample Collection and Assay:
S. Remove all the cells by centrifugation and assay the supernatant for IL-10 by immunoassay.
1) T. Perform […] using anti-human IL-10 antibody coated beads, as described by the manufacturer (Linco Research Inc., St. Charles, Mo.).

| SMILES | Mouse Hypercal (female DBF mice [1]) [µg/kg/day] | pEC50 (rat osteocalcin promoter) | Mouse Hypercal (female DBF mice [2]) [µg/kg/day] | pEC50 (RXR-VDR heterodimer) | pIC50 (KERtr cells) | EC50 (VDR) [nM] | pIC50 (IL-10) |
| --- | --- | --- | --- | --- | --- | --- | --- |
| C=C1/C(=C\C=C2/CCC[C@]3(C)[C@@H]([C@H](C)CCCC(C)(C)O)CC[C@@H]23)C[C@@H](O)C[C@@H]1O [AA, 1α,25-dihydroxyvitamin D3] | 0.06 |  |  |  |  |  |  |
| CCC(CC)(c1ccc(OCC(=O)C(C)(C)C)c(C)c1)c1ccc2oc(C(=O)NCC(=O)O)cc2c1 [Ex 32, [(5-{1-[4-(3,3-dimethyl-2-oxo-butoxy)-3-methyl-phenyl]-1-ethyl-propyl}-benzofuran-2-carbonyl)-amino]-acetic acid] |  | 9.00 | >300 | 7.51 and 8.40 | 8.00 | 385 | 7.29 |
